{
  "source": "patent US11493451B2",
  "about": "“Colorimetric drug test strip using porous support material” (Palo Alto Research Center Incorporated, priority 2019, dated 2022)",
  "key": {"[1]": {"experiment": "Methamphetamine disposition in oral fluid and plasma (Huestis et al.)", "text": "(§1) While pharmacokinetic profile is specific to each individual drug, there are multiple challenges with immunoassay-based roadside drug testing. Current hand-held immunoassays drug testing devices from saliva detect the metabolites of the drugs in question. One challenge with metabolite testing is that depending on the drug and on the mode of administration, there may be delays in the detectability of the drug from the time of ingestion to the test time. For example, in the case of methylenedioxy-methamphetamine (MDMA) detection, the time to maximum concentration of (tmax) of MDMA is 2.8 hours, while for its main metabolite, methylenedioxyamphetamine (MDA), the tmax increases to 4.8 hours. […] This makes metabolite detection very challenging."}, "[2]": {"conditions": "MA (20 mg), cited from earlier work; for Concentration in Saliva: maximum concentration in oral fluid"}, "[3]": {"experiment": "Oral fluid and plasma MDMA and metabolite after controlled oral MDMA administration (Desrosiers et al.)", "type": "in vivo, human", "conditions": "MDMA (75 mg); for Kp: human, saliva (oral fluid) / plasma, read-out: Ratio Saliva/Blood", "text": "This makes metabolite detection very challenging."}, "[4]": {"conditions": "MDMA (75 mg), oral, cited from earlier work; for Concentration in Saliva: maximum concentration in oral fluid"}, "[5]": {"conditions": "after MDMA; cited from earlier work"}, "[6]": {"experiment": "THC and metabolite concentrations in oral fluid and whole blood after smoking a cannabis joint (Fabritius et al.)", "text": "as §1"}, "[7]": {"conditions": "cited from earlier work; for Cmax in blood or plasma / Concentration in Saliva: THC (40 mg); for Concentration in Saliva: maximum concentration in oral fluid"}, "[8]": {"experiment": "Cocaine and metabolites in human oral fluid and plasma following controlled administration (Scheidweiler et al.)", "text": "as §1"}, "[9]": {"conditions": "Cocaine (75 mg subcutaneous), cited from earlier work"}, "[10]": {"conditions": "cited from earlier work"}, "[11]": {"conditions": "Cocaine (75 mg subcutaneous), cocaine vs BE + EME"}},
  "note": "Like-named read-outs stand apart in the source and are kept apart here.",
  "data": [
    {"smiles": "CN[C@@H](C)Cc1ccccc1", "note": "[MA, methamphetamine]", "values": [
      {"measurement": "Ratio Parent:Metabolite, Cmax in blood or plasma", "setting": "[1]; MA (20 mg), MA vs A", "value": 5.3},
      {"measurement": "Ratio Parent:Metabolite, concentration in saliva", "setting": "[1]; MA (20 mg), MA vs A", "value": 13.7},
      {"measurement": "Kp", "setting": "[1]; human, saliva (oral fluid) / plasma, 20 mg", "value": 6},
      {"measurement": "Cmax in blood or plasma", "setting": "[2]", "value": 32, "unit": "ng/mL"},
      {"measurement": "Concentration in Saliva", "setting": "[2]", "value": 192, "unit": "ng/mL"}
    ]},
    {"smiles": "CC(N)Cc1ccccc1", "note": "(stereo not drawn) [A]", "values": [
      {"measurement": "Concentration in Saliva", "setting": "[2]", "value": 14, "unit": "ng/mL"}
    ]},
    {"smiles": "CNC(C)Cc1ccc2c(c1)OCO2", "note": "(stereo not drawn) [MDMA, methylenedioxy-methamphetamine]", "values": [
      {"measurement": "Ratio Parent:Metabolite, concentration in saliva", "setting": "[3]; MDMA vs MDA", "value": 40},
      {"measurement": "Kp", "setting": "[3]", "value": 11},
      {"measurement": "Cmax in blood or plasma", "setting": "[4]", "value": 150, "unit": "ng/mL"},
      {"measurement": "Concentration in Saliva", "setting": "[4]", "value": 1643, "unit": "ng/mL"},
      {"measurement": "time to maximum concentration (tmax)", "setting": "[5]", "value": 2.8, "unit": "h"}
    ]},
    {"smiles": "CC(N)Cc1ccc2c(c1)OCO2", "note": "(stereo not drawn) [MDA, methylenedioxyamphetamine]", "values": [
      {"measurement": "Kp", "setting": "[3]", "value": 5.8},
      {"measurement": "Cmax in blood or plasma", "setting": "[4]", "value": 7, "unit": "ng/mL"},
      {"measurement": "Concentration in Saliva", "setting": "[4]", "value": 41, "unit": "ng/mL"},
      {"measurement": "time to maximum concentration (tmax)", "setting": "[5]", "value": 4.8, "unit": "h"}
    ]},
    {"smiles": "CCCCCc1cc(O)c2c(c1)OC(C)(C)[C@@H]1CCC(C(=O)O)=C[C@@H]21", "note": "[THC-COOH]", "values": [
      {"measurement": "Ratio Saliva/Blood", "setting": "[6]; THC (40 mg)", "value": 0.007},
      {"measurement": "Cmax in blood or plasma", "setting": "[7]", "value": 41, "unit": "ng/mL"},
      {"measurement": "Concentration in Saliva", "setting": "[7]", "value": 0.3, "unit": "ng/mL"}
    ]},
    {"smiles": "COC(=O)[C@H]1[C@@H](OC(=O)c2ccccc2)C[C@@H]2CC[C@H]1N2C", "note": "[Cocaine, cocaine]", "values": [
      {"measurement": "Ratio Parent:Metabolite, Cmax in blood or plasma", "setting": "[8]; [11]", "value": 0.8},
      {"measurement": "Ratio Parent:Metabolite, concentration in saliva", "setting": "[8]; [11]", "value": 4.1},
      {"measurement": "Kp", "setting": "[8]; human, saliva (oral fluid) / plasma, sc, 75 mg", "value": 3.6},
      {"measurement": "Cmax in blood or plasma", "setting": "[9]", "value": 305, "unit": "ng/mL"},
      {"measurement": "Concentration in Saliva", "setting": "[9]; maximum concentration in oral fluid", "value": 1092, "unit": "ng/mL"}
    ]},
    {"smiles": "CCCCCc1cc(O)c2c(c1)OC(C)(C)[C@@H]1CCC(C)=C[C@@H]21", "note": "[THC, Δ9-tetrahydrocannabinol]", "values": [
      {"measurement": "Ratio Parent:Metabolite, Cmax in blood or plasma", "setting": "[6]; THC (40 mg), THC vs THC-COOH", "value": 2.1},
      {"measurement": "Ratio Parent:Metabolite, concentration in saliva", "setting": "[6]; THC (40 mg), THC vs THC-COOH", "value": 2120},
      {"measurement": "Kp", "setting": "[6]; human, saliva (oral fluid) / whole blood, inhaled, 40 mg", "value": 7.3},
      {"measurement": "Cmax in blood or plasma", "setting": "[7]", "value": 87, "unit": "ng/mL"},
      {"measurement": "Concentration in Saliva", "setting": "[7]", "value": 636, "unit": "ng/mL"},
      {"measurement": "THC concentration in saliva relative to main metabolite THC-COOH (times higher)", "setting": "[7]; in one study, saliva", "value": "~2000", "unit": "×"},
      {"measurement": "time over which saliva THC concentration decreases slowly after consumption", "setting": "[10]; THC ingested from food, saliva", "value": "about 24 hours"},
      {"measurement": "THC concentration in saliva after being ingested from food versus same amount of smoked THC", "setting": "[10]; first 15 minutes, saliva", "value": "about ten times lower"},
      {"measurement": "rapid decay after maximum concentration", "setting": "[10]; smoked or vaped THC", "value": "1 to 2", "unit": "h"},
      {"measurement": "time to peak effect and maximum concentration", "setting": "[10]; smoked or vaped THC", "value": "seconds or minutes"}
    ]}
  ]
}
